According to patent US12043599B2, “Herbicidal compounds” (SYNGENTA PARTICIPATIONS AG, priority 2018, dated 2024):

Key:
Assay type in all cases: in vivo
Conditions in all cases: 250 g/h, evaluated after 13 days
Setaria faberi (SETFA) [1] = test: Post-emergence herbicidal glasshouse test, percentage damage
In short: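 Percentage damage was scored 13 days after treatment on a five-point scale (1=0-19% to 5=80-100%). Treatments were post-emergence sprays on 8-day-old wheat, barley and SETFA plants in a glasshouse (24/16 °C day/night, 14 h light, 65% humidity), using acetone/water 50:50 with 0.5% Tween 20 at the stated rates. Wheat additionally received cloquintocet-mexyl safener at 50 g/ha.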

Lolium perenne (LOLPE) [2] = test: Pre-emergence herbicidal glasshouse test, percentage damage
In short: (§1)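 Each compound is sprayed at 250 g/h on pots either 1 or 8 days after sowing (pre- and post-emergence respectively). Growth under controlled glasshouse conditions, 24/16 °C day/night and 65% humidity, continues for 13 days before damage is rated on a five-point scale.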

[3] = tested on: Echinochloa crus-galli (ECHCG); test: as above
In short: as §1

Avena fatua (AVEFA) [4] = test: as above
In short: as §1

Setaria faberi (SETFA) [5] = test: as above
In short: as §1

[6] = tested on: Alopecurus myosuroides (ALOMY); test: as above
In short: as §1

Lolium perenne (LOLPE) [7] = test: Post-emergence herbicidal glasshouse test, percentage damage
In short: as §1

[8] = tested on: Echinochloa crus-galli (ECHCG); test: as above
In short: as §1

Avena fatua (AVEFA) [9] = test: as above
In short: as §1

[10] = tested on: Alopecurus myosuroides (ALOMY); test: as above
In short: as §1

| SMILES | SETFA POST percentage damage (five point scale) (Setaria faberi (SETFA) [1]) | LOLPE PRE percentage damage (five point scale) (Lolium perenne (LOLPE) [2]) | ECHCG PRE percentage damage (five point scale) [3] | AVEFA PRE percentage damage (five point scale) (Avena fatua (AVEFA) [4]) | SETFA PRE percentage damage (five point scale) (Setaria faberi (SETFA) [5]) | ALOMY PRE percentage damage (five point scale) [6] | LOLPE POST percentage damage (five point scale) (Lolium perenne (LOLPE) [7]) | ECHCG POST percentage damage (five point scale) [8] | AVEFA POST percentage damage (five point scale) (Avena fatua (AVEFA) [9]) | ALOMY POST percentage damage (five point scale) [10] |
| --- | --- | --- | --- | --- | --- | --- | --- | --- | --- | --- |
| CC#Cc1cc(C)c(C2=C(OC(=O)COC)CC3(CCN(C(=O)COC)CC3)CC2=O)c(C)c1 [Compound P18] | 5 (5=80-100%) | 5 (5=80-100%) | 5 (5=80-100%) | 5 (5=80-100%) | 5 (5=80-100%) | 5 (5=80-100%) | 5 (5=80-100%) | 5 (5=80-100%) | 5 (5=80-100%) | 5 (5=80-100%) |
| CC#Cc1cc(C)c(C2C(=O)CC3(CCN(C(=O)N4CCOCC4)CC3)CC2=O)c(C)c1 [Compound A13] | 5 (5=80-100%) | 5 (5=80-100%) | 5 (5=80-100%) | 5 (5=80-100%) | 5 (5=80-100%) | 5 (5=80-100%) | 5 (5=80-100%) | 5 (5=80-100%) | 5 (5=80-100%) | 5 (5=80-100%) |
| CC#Cc1cc(C)c(C2C(=O)CC3(CCN(C(=O)C(C)(C)O)CC3)CC2=O)c(C)c1 [Compound A146] | 5 (5=80-100%) | 5 (5=80-100%) | 5 (5=80-100%) | 4 (4=60-79%) | 5 (5=80-100%) | 5 (5=80-100%) | 5 (5=80-100%) | 5 (5=80-100%) | 5 (5=80-100%) | 5 (5=80-100%) |
| CC#Cc1cc(C)c(C2C(=O)CC3(CCN(C(=O)NC(=O)c4ncc(C(F)(F)F)cc4Cl)CC3)CC2=O)c(C)c1 [Compound A158] | 5 (5=80-100%) | 3 (3=40-59%) | 5 (5=80-100%) | 2 (2=20-39%) | 5 (5=80-100%) | 2 (2=20-39%) | 5 (5=80-100%) | 5 (5=80-100%) | 5 (5=80-100%) | 3 (3=40-59%) |
| CC#Cc1cc(C)c(C2C(=O)CC3(CCN(S(=O)(=O)CC4COCCO4)CC3)CC2=O)c(C)c1 (centres unmarked) [Compound A39] | 5 (5=80-100%) | 5 (5=80-100%) | 5 (5=80-100%) | 4 (4=60-79%) | 5 (5=80-100%) | 4 (4=60-79%) | 5 (5=80-100%) | 5 (5=80-100%) | 5 (5=80-100%) | 5 (5=80-100%) |
| CC#Cc1cc(C)c(C2C(=O)CC3(CCN(C(=O)Cc4cccnc4)CC3)CC2=O)c(C)c1 [Compound A99] | 5 (5=80-100%) | 4 (4=60-79%) | 5 (5=80-100%) | 3 (3=40-59%) | 4 (4=60-79%) | 3 (3=40-59%) | 4 (4=60-79%) | 5 (5=80-100%) | 5 (5=80-100%) | 4 (4=60-79%) |
| CC#Cc1cc(C)c(C2C(=O)CC3(CCN(C(=O)[C@@H](C)O)CC3)CC2=O)c(C)c1 [Compound A156] | 5 (5=80-100%) | 5 (5=80-100%) | 5 (5=80-100%) | 5 (5=80-100%) | 5 (5=80-100%) | 5 (5=80-100%) | 5 (5=80-100%) | 5 (5=80-100%) | 5 (5=80-100%) | 5 (5=80-100%) |
| CC#Cc1cc(C)c(C2C(=O)CC3(CCN(C(=O)COCC)CC3)CC2=O)c(C)c1 [Compound A148] | 5 (5=80-100%) | 5 (5=80-100%) | 5 (5=80-100%) | 5 (5=80-100%) | 5 (5=80-100%) | 5 (5=80-100%) | 5 (5=80-100%) | 5 (5=80-100%) | 5 (5=80-100%) | 5 (5=80-100%) |
| CC#Cc1cc(C)c(C2C(=O)CC3(CCN(C(=O)COC4CC4)CC3)CC2=O)c(C)c1 [Compound A202] | 5 (5=80-100%) | 5 (5=80-100%) | 5 (5=80-100%) | 5 (5=80-100%) | 5 (5=80-100%) | 5 (5=80-100%) | 5 (5=80-100%) | 5 (5=80-100%) | 5 (5=80-100%) | 5 (5=80-100%) |
| CC#Cc1cc(C)c(C2C(=O)CC3(CCN(C(=O)NC(=O)c4ccccc4F)CC3)CC2=O)c(C)c1 [Compound A167] | 5 (5=80-100%) | 5 (5=80-100%) | 5 (5=80-100%) | 4 (4=60-79%) | 5 (5=80-100%) | 4 (4=60-79%) | 5 (5=80-100%) | 5 (5=80-100%) | 5 (5=80-100%) | 5 (5=80-100%) |
| CC#Cc1cc(C)c(C2C(=O)CC3(CCN(C(=O)Nc4cccnc4)CC3)CC2=O)c(C)c1 [Compound A22] | 5 (5=80-100%) | 5 (5=80-100%) | 5 (5=80-100%) | 5 (5=80-100%) | 5 (5=80-100%) | 5 (5=80-100%) | 5 (5=80-100%) | 5 (5=80-100%) | 5 (5=80-100%) | 5 (5=80-100%) |
| CC#Cc1cc(C)c(C2C(=O)CC3(CCN(C(=O)COC(C)C)CC3)CC2=O)c(C)c1 [Compound A171] | 5 (5=80-100%) | 5 (5=80-100%) | 5 (5=80-100%) | 5 (5=80-100%) | 5 (5=80-100%) | 5 (5=80-100%) | 5 (5=80-100%) | 5 (5=80-100%) | 5 (5=80-100%) | 5 (5=80-100%) |
| CC#Cc1cc(C)c(C2C(=O)CC3(CCN(C(=O)CCCOC)CC3)CC2=O)c(C)c1 [Compound A193] | 5 (5=80-100%) | 5 (5=80-100%) | 5 (5=80-100%) | 5 (5=80-100%) | 5 (5=80-100%) | 5 (5=80-100%) | 5 (5=80-100%) | 5 (5=80-100%) | 5 (5=80-100%) | 5 (5=80-100%) |
| CC#Cc1cc(C)c(C2=C(OC(=O)c3ccccc3)CC3(CCN(C(=O)c4ccccc4)CC3)CC2=O)c(C)c1 [Compound P2] | 5 (5=80-100%) | 5 (5=80-100%) | 5 (5=80-100%) | 5 (5=80-100%) | 5 (5=80-100%) | 5 (5=80-100%) | 5 (5=80-100%) | 5 (5=80-100%) | 5 (5=80-100%) | 5 (5=80-100%) |
